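These data come from cells grown in 96-well plates and exposed to compound for 48 hours at five concentrations. GI50 marks 50% less growth. At the TGI there is no net growth.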
Columns and labels:
Test in all cases: NCI-60 cell line screen, 48 h
[1] = system: SF-295 CNS
[2] = system: SF-539 CNS
[3] = system: K-562 leukemia
[4] = system: MDA-MB-435
[5] = system: SNB-75 CNS
[6] = system: OVCAR-3 ovarian
[7] = system: IGROV1 ovarian
[8] = system: BT-549 breast
[9] = system: SK-MEL-2 melanoma
[10] = system: DU-145 prostate
[11] = system: HCT-15 colon
[12] = system: UO-31 renal
[13] = system: PC-3 prostate
[14] = system: M14 melanoma
[15] = system: A498 renal
[16] = system: LOX IMVI melanoma
[17] = system: HT29 colon
[18] = system: NCI-H226 lung
[19] = system: OVCAR-8 ovarian
[20] = system: MCF7 breast
[21] = system: MALME-3M melanoma
[22] = system: MDA-MB-231 breast
[23] = system: RXF 393 renal
[24] = system: NCI/ADR-RES ovarian
[25] = system: KM12 colon
[26] = system: HS 578T breast
[27] = system: HL-60(TB) leukemia
[28] = system: SW-620 colon
[29] = system: OVCAR-4 ovarian
[30] = system: HOP-92 NSCLC
[31] = system: HOP-62 NSCLC
[32] = system: UACC-257 melanoma
[33] = system: SNB-19 CNS
[34] = system: T-47D breast
[35] = system: TK-10 renal
[36] = system: SK-MEL-28 melanoma
[37] = system: ACHN renal
[38] = system: HCT-116 colon
[39] = system: SR leukemia
[40] = system: OVCAR-5 ovarian
[41] = system: EKVX NSCLC
[42] = system: SF-268 CNS
[43] = system: HCC-2998 colon
[44] = system: SK-MEL-5 melanoma
[45] = system: CAKI-1 renal
[46] = system: NCI-H522 lung
[47] = system: U251 CNS
[48] = system: SK-OV-3 ovarian
[49] = system: 786-0 renal
[50] = system: A549 NSCLC
[51] = system: RPMI-8226 leukemia
[52] = system: COLO 205 colon
[53] = system: NCI-H460 lung
[54] = system: CCRF-CEM leukemia
[55] = system: UACC-62 melanoma

Work on `Cc1ccc2c(n1)C(=O)C(Cl)=C(Nc1ccccc1C(=O)OC(C)(C)C)C2=O` yielded a GI50 [1] of 4.25 µM, a TGI [1] of 22.5 µM and a GI50 [2] of 1.7 µM. The TGI [2] was 3.18 µM, the GI50 [3] was 0.549 µM and the TGI [3] was > 100 µM. For the same compound, the GI50 [4] was 1.71 µM, the TGI [4] was 3.19 µM and the GI50 [5] was 14.7 µM. For the same compound, the TGI [5] was > 100 µM, the GI50 [6] was 1.31 µM and the TGI [6] was 2.96 µM. For the same compound, the GI50 [7] was 1.73 µM, the TGI [7] was 3.43 µM and the GI50 [8] was 2.9 µM. It also gave a TGI [8] of 9.04 µM, a GI50 [9] of 2.27 µM and a TGI [9] of 6.78 µM. The GI50 [10] was 1.77 µM, the TGI [10] was 3.32 µM and the GI50 [11] was 1.37 µM. The TGI [11] was 3.32 µM, the GI50 [12] was 1.42 µM and the TGI [12] was 2.74 µM. It also gave a GI50 [13] of 1.78 µM, a TGI [13] of 4.19 µM and a GI50 [14] of 1.73 µM. For the same compound, the TGI [14] was 3.38 µM, the GI50 [15] was 12.4 µM and the TGI [15] was 47.8 µM. For the same compound, the GI50 [16] was 1.02 µM, the TGI [16] was 2.31 µM and the GI50 [17] was 2.94 µM. The TGI [17] was 8.52 µM, the GI50 [18] was 6.77 µM and the TGI [18] was > 100 µM. The GI50 [19] was 2.83 µM, the TGI [19] was 9.32 µM and the GI50 [20] was 0.813 µM. For the same compound, the TGI [20] was 3.58 µM, the GI50 [21] was 1.66 µM and the TGI [21] was 3.27 µM. For the same compound, the GI50 [22] was 1.58 µM, the TGI [22] was 3.26 µM and the GI50 [23] was 1.62 µM. For the same compound, the TGI [23] was 2.99 µM, the GI50 [24] was 2.17 µM and the TGI [24] was 5.35 µM. The GI50 [25] was 6.07 µM, the TGI [25] was 50.4 µM and the GI50 [26] was 2.39 µM. The TGI [26] was 7.54 µM, the GI50 [27] was 0.394 µM and the TGI [27] was 1.9 µM. The GI50 [28] was 1.84 µM, the TGI [28] was 6.26 µM and the GI50 [29] was 1.4 µM. For the same compound, the TGI [29] was 2.78 µM, the GI50 [30] was 1.53 µM and the TGI [30] was 2.89 µM. It also gave a GI50 [31] of 3.59 µM, a TGI [31] of 18.3 µM and a GI50 [32] of 1.69 µM. For the same compound, the TGI [32] was 3.3 µM, the GI50 [33] was 3.3 µM and the TGI [33] was 15.4 µM. The GI50 [34] was 1.84 µM, the TGI [34] was 4.91 µM and the GI50 [35] was 1.81 µM. It also gave a TGI [35] of 3.28 µM, a GI50 [36] of 1.66 µM and a TGI [36] of 3.12 µM. The GI50 [37] was 1.75 µM, the TGI [37] was 3.14 µM and the GI50 [38] was 1.61 µM. For the same compound, the TGI [38] was 3.15 µM, the GI50 [39] was 0.442 µM and the TGI [39] was 7.86 µM. The GI50 [40] was 2.05 µM, the TGI [40] was 4.1 µM and the GI50 [41] was 1.59 µM. For the same compound, the TGI [41] was 3.01 µM, the GI50 [42] was 3.06 µM and the TGI [42] was 14.7 µM. The GI50 [43] was 1.75 µM, the TGI [43] was 3.27 µM and the GI50 [44] was 1.59 µM. For the same compound, the TGI [44] was 2.98 µM, the GI50 [45] was 1.55 µM and the TGI [45] was 2.9 µM. For the same compound, the GI50 [46] was 1.83 µM, the TGI [46] was 3.86 µM and the GI50 [47] was 2.42 µM. The TGI [47] was 6.81 µM, the GI50 [48] was > 100 µM and the TGI [48] was > 100 µM. It also gave a GI50 [49] of 1.69 µM, a TGI [49] of 3.22 µM and a GI50 [50] of 44.5 µM. The TGI [50] was > 100 µM, the GI50 [51] was 1.78 µM and the TGI [51] was 5.9 µM. The GI50 [52] was 1.77 µM, the TGI [52] was 3.48 µM and the GI50 [53] was 3.08 µM. For the same compound, the TGI [53] was 11.3 µM, the GI50 [54] was 0.425 µM and the TGI [54] was > 100 µM. The GI50 [55] was 1.82 µM and the TGI [55] was 3.98 µM.

Source: PubChem BioAssay (NCI)
